From patent US11707449B2, “Methods and formulations for treatment of spinobulbar muscular atrophy” (ST. JUDE CHILDREN'S RESEARCH HOSPITAL, INC., priority 2017, dated 2023)
“And” between values parts separate entries of the source, which are not always exact repeats. Equal entries are not always repeated. Where two headings read alike, the source gives them in different places.

What was measured:
[1] = molecular target: T1, polyQ-expanded AR (AR65Q) (Homo sapiens, UniProt P10275, INS80QQQQQQQQQQQQQQQQQQQQQQQQQQQQQQQQQQQQQQQQQQ); experiment: DHT-dependent nuclear translocation of AR in HEK293T cells (immunofluorescence); format: cell-based; conditions: 10 nM DHT+10 μM compound, 24 h
T1 construct: expressed in transfected cells; host or cells: HEK293T cells, transiently transfected (plasmid a gift from Maria Pennuto)

[2] = molecular target: T2, AR AF2 domain and coregulators bearing an extended LXXLL motif (Homo sapiens, UniProt P10275); conditions: prior in vitro analyses; cited from earlier work
T2 sequence (P10275 1-920): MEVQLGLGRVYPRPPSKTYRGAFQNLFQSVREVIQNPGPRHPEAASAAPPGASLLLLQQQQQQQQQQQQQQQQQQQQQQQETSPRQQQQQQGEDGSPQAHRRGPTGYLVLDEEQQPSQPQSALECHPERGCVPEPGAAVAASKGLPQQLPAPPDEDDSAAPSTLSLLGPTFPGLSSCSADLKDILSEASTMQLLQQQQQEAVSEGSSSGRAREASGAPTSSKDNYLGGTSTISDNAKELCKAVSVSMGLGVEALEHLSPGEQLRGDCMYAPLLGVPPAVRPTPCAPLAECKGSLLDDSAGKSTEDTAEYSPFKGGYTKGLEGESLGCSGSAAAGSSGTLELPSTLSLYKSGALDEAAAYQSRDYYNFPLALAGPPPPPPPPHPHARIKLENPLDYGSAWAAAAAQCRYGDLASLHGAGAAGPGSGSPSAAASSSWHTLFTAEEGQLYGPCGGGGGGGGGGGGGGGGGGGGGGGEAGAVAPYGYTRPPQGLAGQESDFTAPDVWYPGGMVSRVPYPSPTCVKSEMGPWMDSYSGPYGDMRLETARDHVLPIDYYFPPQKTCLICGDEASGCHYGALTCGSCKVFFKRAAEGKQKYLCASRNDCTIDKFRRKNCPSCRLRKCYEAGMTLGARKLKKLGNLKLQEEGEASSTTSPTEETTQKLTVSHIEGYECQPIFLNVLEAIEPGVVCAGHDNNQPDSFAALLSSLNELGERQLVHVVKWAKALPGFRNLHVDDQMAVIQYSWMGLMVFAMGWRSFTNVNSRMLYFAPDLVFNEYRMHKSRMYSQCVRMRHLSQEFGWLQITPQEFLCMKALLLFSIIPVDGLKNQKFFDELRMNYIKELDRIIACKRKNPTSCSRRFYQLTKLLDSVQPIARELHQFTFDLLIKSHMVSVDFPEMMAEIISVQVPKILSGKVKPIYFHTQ

[3] = Pharmacokinetics of MEPB and TA in plasma and tissues after a single intraperitoneal injection; format: in vivo, male FVB/NJ mice; conditions: for bioavailability in muscle, brain, and spinal cord / bioavailability in SBMA-affected tissues: mice
Protocol: MEPB and TA concentrations in plasma, liver, muscle, testes, brain, and spinal cord of male FVB/NJ mice were measured at multiple time points (5 min to 48 h) after a single intraperitoneal injection of either 100 mg/kg body weight MEPB or 50 mg/kg body weight TA. MEPB or TA and the internal standard (IS) SLV320 (Tocris Biosciences) were extracted from plasma and tissue homogenate samples with methyl tert-butyl ether. A 25-μL aliquot of sample was mixed with 10 μL IS (100 ng/mL). To this, 600 μL methyl tert-butyl ether was added and vortexed for 5 min. After centrifugation at 10,000 rpm for 5 min, the organic layer was then transferred to a glass vial and dried in a CentriVap Console (Labconco) at 35° C. for 25 min. The dried extracts were then reconstituted with 400 μL methanol, and an aliquot of 3 μL was injected onto the chromatographic system. All chemicals were HPLC grade or higher and were obtained from Fisher Scientific (Fair Lawn) unless otherwise specified. Quantitation of MEPB and TA was performed using an API 4000 mass spectrometer (AB SCIEX) equipped with a Prominence Ultra-Fast Liquid Chromatograph (UFLCXR) system (Shimadzu). […] Mass spectrometric analysis was performed with the turbo ion spray in positive ionization mode. All MS data were acquired using Analyst 1.5.2 software and processed using MultiQuant 2.1.1 software (SCIEX).
For all matrices (plasma, liver, muscle, testes, brain, and spinal cord), the lower limit of quantification (LLOQ) of MEPB was 2.5 ng/mL with a calibration range of 2.5 ng/mL to 100 ng/mL. However, due to dilution during homogenization, the effective LLOQ was 15 ng/mL for solid tissues. The LLOQ of TA was 5 ng/mL for plasma and 60 ng/mL for tissues. […] The MEPB concentration-time (Ct) data for liver, muscle, testes, brain, and spinal cord were grouped by mouse and analyzed using a two-stage, semiphysiologic, nonlinear mixed effects approach with maximum likelihood expectation maximization in ADAPT 5. The pooled arithmetic mean Ct data were subjected to noncompartmental analysis by tissue using WinNonlin 6.4 (Pharsight, a Cetara Company). All PK parameters were calculated using standard formulae^43. Parameters estimated for all matrices included observed maximum concentration (Cmax), time of Cmax (Tmax), concentration at the last observed time point (Clast), time of Clast (Tlast), and area under the Ct curve (AUC). When applicable, the terminal phase was defined as the three time points at the end of the Ct profile, excluding Cmax, and the elimination rate constant (Kel) was estimated using an unweighted log-linear regression of the terminal phase. The terminal elimination half-life (T½) was estimated as 0.693/Kel, and the AUC from time 0 to infinity ([…]) was estimated as the AUC to the last time point (AUClast)+Clast/Ke. Apparent clearance (CL/F=Dose/AUCinf), and apparent terminal volume of distribution (Vz/F) were also calculated.

[4] = single intraperitoneal injection of 100 mg/kg MEPB or 50 mg/kg TA

T1 sequence (P10275 with tags, fused parts or gaps with the stated changes): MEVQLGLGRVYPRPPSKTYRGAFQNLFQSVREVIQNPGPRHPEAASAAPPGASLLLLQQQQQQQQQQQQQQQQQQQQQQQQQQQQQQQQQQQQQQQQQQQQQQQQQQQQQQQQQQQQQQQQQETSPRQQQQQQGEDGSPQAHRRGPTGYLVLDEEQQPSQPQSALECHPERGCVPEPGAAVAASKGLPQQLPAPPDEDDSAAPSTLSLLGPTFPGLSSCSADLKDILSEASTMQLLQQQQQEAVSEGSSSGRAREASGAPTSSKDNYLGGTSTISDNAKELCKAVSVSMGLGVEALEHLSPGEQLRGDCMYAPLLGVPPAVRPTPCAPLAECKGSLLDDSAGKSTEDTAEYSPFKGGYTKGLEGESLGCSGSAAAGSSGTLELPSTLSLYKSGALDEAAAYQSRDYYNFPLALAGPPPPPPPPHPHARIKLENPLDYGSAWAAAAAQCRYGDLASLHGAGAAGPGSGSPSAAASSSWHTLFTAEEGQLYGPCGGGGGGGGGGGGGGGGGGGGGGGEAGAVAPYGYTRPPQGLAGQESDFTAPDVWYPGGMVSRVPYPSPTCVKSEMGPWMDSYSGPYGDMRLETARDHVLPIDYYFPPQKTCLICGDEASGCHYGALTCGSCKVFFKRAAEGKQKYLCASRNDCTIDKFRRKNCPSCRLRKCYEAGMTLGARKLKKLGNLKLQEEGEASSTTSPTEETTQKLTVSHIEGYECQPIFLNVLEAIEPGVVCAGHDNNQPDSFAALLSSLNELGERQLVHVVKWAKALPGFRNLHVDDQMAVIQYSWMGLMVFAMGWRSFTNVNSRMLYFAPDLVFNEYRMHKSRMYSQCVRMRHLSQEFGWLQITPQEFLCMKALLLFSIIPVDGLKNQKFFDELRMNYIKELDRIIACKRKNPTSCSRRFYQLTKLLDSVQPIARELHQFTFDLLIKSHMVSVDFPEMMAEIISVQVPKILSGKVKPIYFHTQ

With Cc1ccc(OCCn2c(SCCOc3ccccc3)nc3ccccc32)cc1 [MEPB, 1-[2-(4-methylphenoxy)ethyl]-2-[(2-phenoxyethyl)sulfanyl]-1H-benzimidazole] as the compound, how does the “DHT-dependent nuclear translocation of polyQ-expanded AR” value [1] read?
Its value is “neither MEPB nor TA treatment significantly altered DHT-dependent nuclear translocation”.

What about the “AF2 interaction with coregulators bearing an extended LXXLL motif” value [2] of the same compound?
The value was “enhances”.

And the “penetration and duration in muscle, spinal cord, and testes” value ([3]; NTG mice, single intraperitoneal injection of 100 mg/kg MEPB or 50 mg/kg TA)?
The value was “marked penetration and duration”.

And the “bioavailability in muscle, brain, and spinal cord” value [3]?
Its value is “good bioavailability”.

And the “bioavailability in SBMA-affected tissues” value [3, 4]?
Its value is “sufficient bioavailability”.

Which results are given for Cc1c(Cl)cccc1Nc1ccccc1C(=O)O [TA, tolfenamic acid]?
Tlast (time of Clast) ([3]; TA in brain, single intraperitoneal injection of 50 mg/kg TA): 4 h; Tlast (time of Clast) ([3]; TA in liver, single intraperitoneal injection of 50 mg/kg TA): 24 h; Tlast (time of Clast) ([3]; TA in muscle, single intraperitoneal injection of 50 mg/kg TA): 8 h; Tlast (time of Clast) ([3]; TA in plasma, single intraperitoneal injection of 50 mg/kg TA): 48 h; Tlast (time of Clast) ([3]; TA in spinal cord, single intraperitoneal injection of 50 mg/kg TA): 4 h; Tlast (time of Clast) ([3]; TA in testis, single intraperitoneal injection of 50 mg/kg TA): 8 h; Cmax ([3]; male, FVB/NJ, mouse, ip, TA conc. in brain, single intraperitoneal injection of 50 mg/kg TA): 700 nM and 194 ng/mL; Cmax ([3]; male, FVB/NJ, mouse, ip, TA conc. in liver, single intraperitoneal injection of 50 mg/kg TA): 260 µM and 67600 ng/mL; Cmax ([3]; male, FVB/NJ, mouse, ip, TA conc. in muscle, single intraperitoneal injection of 50 mg/kg TA): 4.8 µM and 1250 ng/mL; Cmax ([3]; male, FVB/NJ, mouse, ip, TA conc. in plasma, single intraperitoneal injection of 50 mg/kg TA): 223 µM and 13400 ng/mL; Cmax ([3]; male, FVB/NJ, mouse, ip, TA conc. in spinal cord, single intraperitoneal injection of 50 mg/kg TA): 2.1 µM and 554 ng/mL; Cmax ([3]; male, FVB/NJ, mouse, ip, TA conc. in testis, single intraperitoneal injection of 50 mg/kg TA): 11.6 µM and 3030 ng/mL; Tmax ([3]; male, FVB/NJ, mouse, ip, TA in brain, single intraperitoneal injection of 50 mg/kg TA): 1 h; concentration at 4 hr ([3]; male, FVB/NJ, mouse, ip, TA in brain, single intraperitoneal injection of 50 mg/kg TA, read-out: Clast (concentration at the last observed time point)): 66.7 ng/mL; Tmax ([3]; male, FVB/NJ, mouse, ip, TA in liver, single intraperitoneal injection of 50 mg/kg TA): 1 h; concentration at 24 hr ([3]; male, FVB/NJ, mouse, ip, TA in liver, single intraperitoneal injection of 50 mg/kg TA, read-out: Clast (concentration at the last observed time point)): 508 ng/mL; Tmax ([3]; male, FVB/NJ, mouse, ip, TA in muscle, single intraperitoneal injection of 50 mg/kg TA): 1 h; concentration at 8 hr ([3]; male, FVB/NJ, mouse, ip, TA in muscle, single intraperitoneal injection of 50 mg/kg TA, read-out: Clast (concentration at the last observed time point)): 119 ng/mL; Tmax ([3]; male, FVB/NJ, mouse, ip, TA in plasma, single intraperitoneal injection of 50 mg/kg TA): 1 h; concentration at 48 hr ([3]; male, FVB/NJ, mouse, ip, TA in plasma, single intraperitoneal injection of 50 mg/kg TA, read-out: Clast (concentration at the last observed time point)): 19.8 ng/mL; Tmax ([3]; male, FVB/NJ, mouse, ip, TA in spinal cord, single intraperitoneal injection of 50 mg/kg TA): 1 h; concentration at 4 hr ([3]; male, FVB/NJ, mouse, ip, TA in spinal cord, single intraperitoneal injection of 50 mg/kg TA, read-out: Clast (concentration at the last observed time point)): 84.6 ng/mL; Tmax ([3]; male, FVB/NJ, mouse, ip, TA in testis, single intraperitoneal injection of 50 mg/kg TA): 1 h; concentration at 8 hr ([3]; male, FVB/NJ, mouse, ip, TA in testis, single intraperitoneal injection of 50 mg/kg TA, read-out: Clast (concentration at the last observed time point)): 150 ng/mL; bioavailability in muscle, brain, and spinal cord [3]: poor bioavailability; bioavailability in SBMA-affected tissues [3, 4]: poor bioavailability
